# Biological target: Beta-lactamase (Escherichia coli (strain K12), UniProt P00811)
# Assay: Enzyme Inhibition Assay
# Conditions: pH 7
# From the text: Enzyme inhibition assay using AmpC or TEM-1 from escherichia coli.
# Chain of Beta-lactamase (P00811 whole entry): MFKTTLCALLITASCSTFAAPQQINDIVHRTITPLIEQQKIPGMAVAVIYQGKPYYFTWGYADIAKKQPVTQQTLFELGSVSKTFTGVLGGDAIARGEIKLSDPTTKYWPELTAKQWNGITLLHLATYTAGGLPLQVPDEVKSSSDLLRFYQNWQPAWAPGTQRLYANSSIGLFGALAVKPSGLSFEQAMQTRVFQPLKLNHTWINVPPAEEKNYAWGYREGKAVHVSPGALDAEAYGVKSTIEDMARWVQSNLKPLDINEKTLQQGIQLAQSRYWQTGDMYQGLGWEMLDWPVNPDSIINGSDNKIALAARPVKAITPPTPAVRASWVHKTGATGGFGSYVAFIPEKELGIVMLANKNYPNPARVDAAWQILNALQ
row,Compound,Ki
1,"O=CNCB(O)O [Acylglycineboronic acid, 3]",4.8 µM
2,"CC(=O)NCB(O)O [Acylglycineboronic acid, 5]",18.5 µM
3,"O=C(Cc1ccccc1)NCB(O)O [Acylglycineboronic acid, 6]",0.57 µM
4,"O=C(COc1ccccc1)NCB(O)O [Acylglycineboronic acid, 7]",0.7 µM
5,"CC(Oc1ccccc1)C(=O)NCB(O)O (stereo unspecified) [Acylglycineboronic acid, 8]",0.3 µM
6,"CCOc1ccc2ccccc2c1C(=O)NCB(O)O [Acylglycineboronic acid, 10]",0.033 µM
7,"O=C(CCl)NCB(O)O [Acylglycineboronic acid, 12]",0.24 µM
8,"O=C(CSc1ccncc1)NCB(O)O [Acylglycineboronic acid, 13]",0.175 µM
9,OB(O)O [Boric acid],2800 µM
10,CB(O)O [Methylboronic Acid],1000 µM
11,O=C(Cc1cccs1)NCB(O)O [N-2-THIOPHEN-2-YL-ACETAMIDE BORONIC ACID],0.32 µM

# — BindingDB's records for doi:10.1016/S1074-5521(00)00052-1 (Northwestern University, 2001)
